Results as given in US9604998B2, “Inhibitors of the renal outer medullary potassium channel” (MERCK SHARP & DOHME CORP., priority 2013, dated 2017).
pIC50: −log10 of the molar value. Where a name gives a salt, the structure may show the parent alone. Read-outs that look alike come from different tables or passages of the source.

Tests used:
[1] = target: hROMK (hKir1.1) (Homo sapiens (Human), UniProt P48048); assay: Thallium Flux Assay (ROMK channel functional thallium flux, FLIPR-Tetra); format: cell-based
Method: HEK293 cells stably expressing hROMK (hKir1.1) were grown at 37° C. in a 10% CO2 humidified incubator in complete growth media: Dulbecco's Modified Eagle Medium supplemented with non-essential amino acids, Penicillin/Streptomycin/Glutamine, G418 and FBS. At >80% confluency, aspirate the media from the flask and rinse with 10 mL Calcium/Magnesium-free PBS. […] To dislodge the cell, gently bang the side of the flask with your hand. Triturate the cells completely and then transfer the cells to 25 mL complete media. Centrifuge at 1,500 rpm for 6 min followed by resuspension in complete growth media and determine cell concentration.
Compound Buffer (per microplate): 20 mL Probenecid/Assay Buffer; 0.3 mM ouabain (10 mM ouabain in water can be stored in amber bottle/aluminum foil at room temperature); Test compound
Stimulant Buffer (prepared at 5× final concentration in 1× FluxOR™ Chloride-Free Buffer): 7.5 mM Thallium sulfate and […] (to give a final assay concentration of 3 mM Thallium/0.3 mM Potassium). Store at 4° C. when not in use. If kept sterile, this solution is good for months.
The ROMK channel functional thallium flux assay is performed in 384 wells, using the FLIPR-Tetra instrument. HEK-hKir1.1 cells are seeded in Poly-D-Lysine microplates and kept in a 37° C.-10% CO2 incubator overnight. On the day of the experiment, the growth media is replaced with the FluxOR™ reagent loading buffer and incubated, protected from light, at ambient temperature (23-25° C.) for 90 min. The loading buffer is replaced with assay buffer±test compound followed by 30 min incubation at ambient temperature, where the Thallium/Potassium stimulant is added to the microplate.
1. Seed HEK-hKir1.1 cells (50 μl at 20,000 cells/well) in 384-well PDL coated Microplates
2. Allow cells to adhere overnight in humidified 37° C./10% CO2 incubator
3. Completely remove cell growth media from microplate and replace with 25 μl loading buffer
4. Incubate Microplate at room temperature, protected form light, for 90 min
5. Remove loading buffer and replace with 25 μl 1× Assay Buffer±test compound.
6. Incubate microplate at room temperature, protected from light, for 30 min
7. […] Excitation=400 nm, Emission=460 & 580 nm. Collect data for ˜10 min.
The fluorescence intensity of wells containing 3 μM of a standard control ROMK inhibitor of the present invention is used to define the ROMK-sensitive component of thallium flux. Fluorescence in the presence of test compounds is normalized to control values to provide % fluorescence change.

[2] = target: Kir1.1 (ROMK1) (Homo sapiens (Human), UniProt P48048); assay: Electrophysiology Assay (whole cell voltage clamp, IonWorks Quattro); format: cell-based; conditions: block during voltage step to 0 mV
Outline: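 CHO cells stably expressing the channel, induced overnight with 1 mM sodium butyrate, were recorded in amphotericin-perforated patch mode. The test pulse was a 100 ms step to 0 mV from −70 mV, then a −70 to +70 mV ramp, applied before and after a 6 min compound incubation. Current amplitudes were compared.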

[3] = HEK293 cells stably expressing hROMK (hKir1.1), read-out: Thallium Flux IC50
[4] = Chinese hamster ovary cells stably expressing Kir1.1, read-out: Electrophysiology IC50
[5] = Electrophysiology IC50, Chinese hamster ovary cells stably expressing Kir1.1
[6] = Thallium Flux IC50, HEK293 cells stably expressing hROMK (hKir1.1)

Chain of Kir1.1 (ROMK1) (P48048 whole entry, species assumed): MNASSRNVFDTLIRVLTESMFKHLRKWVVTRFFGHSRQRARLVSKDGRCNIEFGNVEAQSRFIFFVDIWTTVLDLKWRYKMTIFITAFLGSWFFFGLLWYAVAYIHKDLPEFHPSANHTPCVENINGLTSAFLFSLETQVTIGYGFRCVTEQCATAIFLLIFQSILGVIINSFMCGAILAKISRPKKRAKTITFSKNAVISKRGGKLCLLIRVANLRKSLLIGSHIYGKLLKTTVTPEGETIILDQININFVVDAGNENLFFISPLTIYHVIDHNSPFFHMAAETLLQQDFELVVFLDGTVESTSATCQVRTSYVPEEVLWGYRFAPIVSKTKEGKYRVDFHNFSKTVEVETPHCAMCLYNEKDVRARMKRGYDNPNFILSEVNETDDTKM
Chain of hROMK (hKir1.1) (P48048 whole entry): as the sequence (P48048 whole entry, species assumed) above

In the case of COc1cc([C@H]2CN3CCN(C[C@H](O)c4ccc5c(c4C)COC5=O)C[C@@H]3CO2)cc(F)c1C#N [Example 53, (3S,9aR)-3-(4-cyano-3-fluoro-5-methoxyphenyl)-8-[(2R)-2-hydroxy-2-(4-methyl-1-oxo-1,3-dihydro-2-benzofuran-5-yl)ethyl]octahydropyrazino[2,1-c][1,4]oxazin-8-ium chloride], the pIC50 [1, 3] was 6.62 and the pIC50 [2, 4] was 7.10.
Cc1c(CCN2CCN3C[C@@H](c4ccc(F)c(C#N)c4)OC[C@@H]3C2)ccc2c1COC2=O [Example 72] showed a pIC50 [1, 3] of 6.82 and a pIC50 [2, 4] of 6.80.
COc1cc([C@H]2CN3CCN(CC(O)c4cc(OC)c(C#N)cc4F)C[C@@H]3CO2)ccc1C#N (stereo partly drawn) [Example 14, (3S,9aR)-8-[2-(4-cyano-2-fluoro-5-methoxyphenyl)-2-hydroxyethyl]-3-(4-cyano-3-methoxyphenyl)octahydropyrazino[2,1-c][1,4]oxazin-5-ium chloride] showed a pIC50 [1, 3] of 6.24 and a pIC50 [2, 4] of 6.57.
Cc1c([C@@H]2CN3CCN(CC(O)c4ccc5c(c4)C[C@@H](C)OC5=O)C[C@H]3CO2)ccc2c1COC2=O (single isomer, unassigned) [Example 46] was tested, and the pIC50 [1, 3] was 6.55 and the pIC50 [2, 4] was 6.96.
Work on Cc1c([C@@H]2CN3CCN(CCc4ccc5c(c4)C[C@H](C)OC5=O)C[C@H]3CO2)ccc2c1COC2=O [Example 86] yielded a pIC50 [1, 3] of 7.10 and a pIC50 [2, 4] of 7.10.
Work on COc1cc(CCN2CCN3C[C@H](c4ccc5c(c4C)COC5=O)OC[C@H]3C2)ccc1C#N [Example 61] yielded a pIC50 [1, 3] of 6.48 and a pIC50 [2, 4] of 6.92.
In the case of Cc1c([C@@H]2CN3CCN(CCc4ccc5c(c4)COC5=O)C[C@H]3CO2)ccc2c1COC2=O [Example 64], the pIC50 [1, 3] was 7.40 and the pIC50 [2, 4] was 7.40.
With Cc1c(CCN2CCN3C[C@@H](c4ccc5c(c4)CCOC5=O)OC[C@@H]3C2)ccc2c1COC2=O [Example 73] the pIC50 [1, 3] was 6.24 and the pIC50 [2, 4] was 6.52.
Cc1c(CCN2CCN3C[C@@H](c4ccc5c(c4C)COC5=O)OC[C@@H]3C2)ccc2c1COC2=O [Example 57, 4-Methyl-5-((3R,9aS)-8-(2-(4-methyl-1-oxo-1,3-dihydroisobenzofuran-5-yl)ethyl)octahydropyrazino[2,1-c][1,4]oxazin-3-yl)isobenzofuran-1(3H)-one] was tested, and the pIC50 [1, 3] was 7.52 and the pIC50 [2, 4] was 7.05.
In the case of COc1c(CCN2CCN3C[C@H](c4ccc5c(c4C)COC5=O)OC[C@@H]3C2)ccc(C#N)c1F [Example 96], the pIC50 [1, 3] was 6.68 and the pIC50 [2, 4] was 7.10.
CCOc1cc(CCN2CCN3C[C@@H](c4ccc5c(c4C)COC5=O)OC[C@@H]3C2)ccc1C#N [Example 83] showed a pIC50 [1, 3] of 6.92 and a pIC50 [2, 4] of 7.05.
With Cc1c([C@H](O)CN2CCN3C[C@@H](c4ccc5c(c4)COC5=O)OC[C@@H]3C2)ccc2c1COC2=O [Example 12, (3R,9aS)-8-[(2S)-2-hydroxy-2-(4-methyl-1-oxo-1,3-dihydro-2-benzofuran-5-yl)ethyl]-3-(1-oxo-1,3-dihydro-2-benzofuran-5-yl)octahydropyrazino[2,1-c][1,4]oxazin-5-ium chloride] the pIC50 [1, 3] was 6.72 and the pIC50 [2, 4] was 7.52.
Cc1cc(-n2cnnn2)ncc1C(O)CN1CCN2C[C@@H](c3ccc(F)c(C#N)c3C)OC[C@@H]2C1 (single isomer, unassigned) [Example 20] gave a pIC50 [1, 3] of 6.52 and a pIC50 [2, 5] of 6.62.
Work on Cc1c(C(O)CN2CCN3C[C@@H](c4ccc5c(c4C)COC5=O)OC[C@@H]3C2)ccc(F)c1C#N (stereo partly drawn) [Example 13, (3R,9aS)-8-[2-(3-cyano-4-fluoro-2-methylphenyl)-2-hydroxyethyl]-3-(4-methyl-1-oxo-1,3-dihydro-2-benzofuran-5-yl)octahydropyrazino[2,1-c][1,4]oxazin-5-ium trifluoroacetate] yielded a pIC50 [1, 3] of 6.57 and a pIC50 [2, 4] of 6.66.
With Cc1c([C@@H]2CN3CCN(C[C@H](O)c4ccc5c(c4C)COC5=O)C[C@H]3CO2)ccc2c1COC2=O [Example 3, 5-((R)-1-hydroxy-2-((3R,9aS)-3-(4-methyl-1-oxo-1,3-dihydroisobenzofuran-5-yl)hexahydropyrazino[2,1-c][1,4]oxazin-8(1H)-yl)ethyl)-4-methylisobenzofuran-1(3H)-one] the pIC50 [1, 3] was 6.92 and the pIC50 [2, 4] was 7.30.
Work on Cc1c(C(C)CN2CCN3C[C@@H](c4ccc5c(c4C)COC5=O)OC[C@@H]3C2)ccc2c1COC2=O (some centres unmarked) [Example 90] yielded a pIC50 [1, 3] of 6.96 and a pIC50 [2, 4] of 6.64.
In the case of Cc1c([C@@H](O)CN2CCN3C[C@H](c4ccc5c(c4C)COC5=O)SC[C@@H]3C2)ccc2c1COC2=O [Example 55, 5-{(3S,9aS)-8-[(2R)-2-hydroxy-2-(4-methyl-1-oxo-1,3-dihydro-2-bcnzofuran-5-yl)ethyl]octahydropyrazino[2,1-c][1,4]thiazin-3-yl}-4-methyl-2-benzofuran-1(3H)-one], the pIC50 [1, 3] was 6.48 and the pIC50 [2, 4] was 7.05.
Cc1c([C@H]2CN3CCN(CCc4ccc5c(c4C)COC5=O)C[C@H]3CO2)ccc(F)c1C#N [Example 79] showed a pIC50 [1, 3] of 6.57 and a pIC50 [2, 4] of 7.15.
Work on COc1cc([C@H]2CN3CCN(CCc4ccc5c(c4C)COC5=O)C[C@@H]3CO2)ccc1C#N [Example 75] yielded a pIC50 [1, 3] of 6.96 and a pIC50 [2, 4] of 7.15.
Work on Cc1c([C@H]2CN3CCN(C[C@H](O)c4ccc5c(c4)COC5=O)C[C@@H]3CN2)ccc(F)c1C#N [Example 108] yielded a pIC50 [1, 3] of 7.00 and a pIC50 [2, 4] of 7.00.
In the case of Cc1c([C@@H]2CN3CCN(CC(O)c4cc(F)c(C#N)c(F)c4)C[C@H]3CO2)ccc2c1COC2=O (single isomer, unassigned) [Example 49], the pIC50 [1, 3] was 6.60 and the pIC50 [2, 4] was 7.30.
For Cc1cc2c(cc1C(O)CN1CCN3C[C@H](c4ccc(F)c(C#N)c4C)OC[C@@H]3C1)COC2=O (single isomer, unassigned) [Example 26, trifluoroacetate], the pIC50 [1, 6] was 6.60 and the pIC50 [2, 5] was 6.66.
With Cc1c([C@@H]2CN3CCN(CCc4ccc5c(c4)C[C@H](C)OC5=O)C[C@H]3CO2)ccc(F)c1C#N [Example 88] the pIC50 [1, 3] was 6.72 and the pIC50 [2, 4] was 7.30.
With Cc1cc2c(cc1C(O)CN1CCN3C[C@@H](c4ccc(F)c(C#N)c4C)OC[C@@H]3C1)COC2=O (single isomer, unassigned) [Example 25, trifluoroacetate] the pIC50 [1, 6] was 6.47 and the pIC50 [2, 5] was 6.72.
Work on Cc1c([C@@H]2CN3CCN(CCc4ccc5c(c4)C[C@@H](C)OC5=O)C[C@H]3CO2)ccc2c1COC2=O [Example 87] yielded a pIC50 [1, 3] of 6.96 and a pIC50 [2, 4] of 7.30.
With Cc1c([C@@H]2CN3CCN(CC(O)c4ccc5c(c4C4CC4)COC5=O)C[C@H]3CO2)ccc2c1COC2=O (single isomer, unassigned) [Example 51] the pIC50 [1, 3] was 6.40 and the pIC50 [2, 4] was 6.64.
COc1cc(CCN2CCN3C[C@@H](c4ccc5c(c4C)COC5=O)OC[C@@H]3C2)ccc1C#N [Example 56, 2-methoxy-4-(2-((3R,9aS)-3-(4-methyl-1-oxo-1,3-dihydroisobenzofuran-5-yl)hexahydropyrazino[2,1-c][1,4]oxazin-8(1H)-yl)ethyl)benzonitrile] gave a pIC50 [1, 3] of 7.40 and a pIC50 [2, 4] of 7.15.
In the case of Cc1cc(-n2cnnn2)ncc1C(O)CN1CCN2C[C@@H](c3ccc(F)c(C#N)c3C)OC[C@@H]2C1 (single isomer, unassigned) [Example 19], the pIC50 [1, 3] was 6.36 and the pIC50 [2, 5] was 6.59.
In the case of Cc1cc2c(cc1C(O)CN1CCN3C[C@H](c4ccc(F)c(C#N)c4C)OC[C@@H]3C1)COC2=O (single isomer, unassigned) [Example 27, trifluoroacetate], the pIC50 [1, 6] was 6.51 and the pIC50 [2, 5] was 6.62.
Cc1c([C@@H]2CN3CCN(CCc4ccc5c(c4)CC(C)OC5=O)C[C@H]3CO2)ccc2c1COC2=O (some centres unmarked) [Example 81] showed a pIC50 [1, 3] of 7.05 and a pIC50 [2, 4] of 6.92.
In the case of COc1cc([C@@H]2CN3CCN(CCc4ccc5c(c4C)COC5=O)C[C@H]3CO2)ccc1C#N [Example 71], the pIC50 [1, 3] was 6.96 and the pIC50 [2, 4] was 6.70.
